In patent US9051306B2, “Indirubin derivative having highly selective cytotoxicity for malignant tumors” (NIHON UNIVERSITY, priority 2011, dated 2015):
“Also recorded” adds a separate entry of the source. Like-named read-outs stand apart in the source and are kept apart here. Blank lines part the entries; values can stand above or below the molecule they belong to.

How the values were obtained:
[1] = tested on: human neuroblastoma cells IMR-32; experiment: Antitumor activity, MTT method, IMR-32; format: cell-based
Method: (§1) Antitumor activity was determined by the MTT (3-(4,5-dimethylthiazol-2-yl)-2,5-diphenyltetrazolium bromide) method.
(§2) One hundred μL of a suspension of tumor cells in an RPMI 1640 medium was seeded into a 96-well plate (1×10^4 cells/well) and cultured for 24 hours (5% CO2, 37° C., saturated humidity conditions). Subsequently, the test compound (final concentration of from 1×10^−5 to 1×10^−8 M) and DMSO as a control were each added in an amount of 0.2 μL and allowed to act on the tumor cells for 48 hours. Subsequently, 10 μL of a 0.5% MTT solution was added. After 3 hours, 100 μL of a reaction terminating solution (0.04 N HCl/isopropanol) was added to terminate the reaction. After thorough pipetting, the absorbance was measured at 570 nm (top) and 655 nm (bottom) using a microplate reader. The cell survival rate for each sample at each concentration was calculated as a percentage to the control group, and IC50 values were determined from the data. The tumor cells used were human neuroblastoma cells IMR-32, SK-N-SH, LA-N-1, and NB-39 and human liver cancer cells HepG-2. Non-tumor cells: normal human dermal fibroblasts (NHDF) and human umbilical vein endothelial cells (HUVEC) were also used.

[2] = tested on: human neuroblastoma cells SK-N-SH; experiment: Antitumor activity, MTT method, SK-N-SH; format: cell-based
Method: as §1, §2

[3] = tested on: human neuroblastoma cells NB-39; experiment: Antitumor activity, MTT method, NB-39; format: cell-based
Method: as §1, §2

[4] = tested on: human neuroblastoma cells LA-N-1; experiment: Antitumor activity, MTT method, LA-N-1; format: cell-based
Method: as §1, §2

[5] = tested on: human liver cancer cells HepG-2; experiment: Antitumor activity, MTT method, HepG-2; format: cell-based
Method: as §1, §2

[6] = tested on: normal human dermal fibroblasts (NHDF); experiment: Cytotoxicity, MTT method, NHDF non-tumor cells; format: cell-based
Method: as §1, §2

[7] = tested on: human umbilical vein endothelial cells (HUVEC); experiment: Cytotoxicity, MTT method, HUVEC non-tumor cells; format: cell-based
Method: as §1, §2

[8] = tested on: human liver cancer cell line HepG2; experiment: Antitumor activity (2), Alamar Blue cell survival; format: cell-based; conditions: 24 hours, read-out: cytotoxic activity (IC50: 50% inhibitory concentration)
Method: Fetal bovine serum (FBS) was added at a final concentration of 10% to dulbecco's modified eagle's medium (DMEM, Sigma-Aldrich), and a penicillin-streptomycin solution (GIBCO) was further added at a concentration of 0.1 mg/mL.
An Alamar Blue solution manufactured by Wako Pure Chemical Industries, Ltd. was used.
One hundred μL aliquot of a suspension of human liver cancer cell line HepG2 cells in DMEM medium (1.0×10^5 cells/mL) was dispensed into a 96-well culture plate. The cells were allowed to adhere to the plate by being cultured at 37° C. in 5% CO2 under saturated humidity conditions. After culture for 24 hours, the medium was removed by suction, and 100 μL of a test compound-containing medium (containing 1% DMSO) was added. The cells were cultured at 37° C. in 5% CO2 under saturated humidity conditions. After culture for 24 hours, the medium was removed by suction, and the cells were washed with phosphate buffered saline (PBS). The Alamar Blue reagent solution (100 μL) diluted 10 times with the medium was added to each well, and the cells were cultured under the same conditions. After 1 hour, the fluorescence intensity was measured at an excitation wavelength of 577 nm and a detection wavelength of 612 nm. When the cell survival rate was calculated, the value for the well added with the vehicle (containing 1% DMSO) was normalized as 100%.

IMR-32 cells = experiment: Ability to induce apoptosis, Hoechst 33342 staining method; format: cell-based, human
Method: The ability to induce apoptosis was examined using nuclear staining by the Hoechst 33342 staining method.
Two mL of a suspension of cells (IMR-32) in an RPMI 1640 medium was seeded into a 6-well plate (1×10^5 cells/well) and cultured for 24 hours (under 5% CO2, 37° C., and saturated humidity conditions). Subsequently, the test compound (final concentration of from 1×10^−5 M to 1×10^−7 M) and DMSO as a control were each added in an amount of 4 μL and allowed to act on the cells for 24 hours. Subsequently, 100 μL of a 0.02% Hoechst 33342 solution was added. After 15 minutes, phase-contrast images and fluorescence images of the cells were taken with a fluorescence microscope to observe changes in cell morphology.

[9] = tested on: human neuroblastoma IMR-32 cells; experiment: Ability to induce apoptosis, flow cytometry (Annexin V-FITC/PI); format: cell-based; conditions: 24 hours
Method: Flow cytometry was used to detect whether the compound (HS-2) of the present invention had the ability to induce apoptosis of human neuroblastoma IMR-32 cells. Specifically, 2 mL of a suspension of cells (IMR-32) in an RPMI 1640 medium was seeded into a 6-well plate (1×10^6 cells/well) and cultured for 24 hours (under 5% CO2, 37° C., and saturated humidity conditions). Subsequently, the compound (HS-2) was added at a final concentration of from 1×10^−5 M to 1×10^−7 M and incubated under 37° C. and 5% CO2 conditions for 24 hours. The cells were detached with trypsin and washed with PBS. Annexin V-FITC and propidium iodide (PI) were then added to the cells to carry out flow cytometry. In this technique, only Annexin V-FITC fluorescence is observed from cells in the early apoptosis phase, and both Annexin V fluorescence and PI fluorescence are observed from cells in the late apoptosis phase.

tumor cells = experiment: Antitumor activity, MTT method, overall statement on tumor cells; format: cell-based, human; conditions: from FIG. 1 and Table 1
Method: as §1, §2

SMILES: O=C1Nc2ccccc2/C1=C1/Nc2ccccc2/C1=N\OCC1CO1 (stereo not drawn) [HS-2, indirubin-3′-(O-oxiran-2-ylmethyl)oxime]
IC50 ([1]; Homo sapiens, IMR-32, 48 h): 329 nM
IC50 ([2]; Homo sapiens, 48 h): 325 nM
IC50 ([3]; Homo sapiens, NB39, 48 h): 550 nM
IC50 ([4]; Homo sapiens, LAN1, 48 h): 139 nM
IC50 ([5]; Homo sapiens, HepG2): 1000 nM
IC50 ([6]; Homo sapiens, NHDF, 48 h): 61400 nM
IC50 ([7]; Homo sapiens, HUVEC, 48 h): 1750 nM
IC50 ([8]; Homo sapiens): 1000 nM
apoptosis of IMR-32 neuroblastoma cells (IMR-32 cells; FIG. 2 legend): induced apoptosis
nuclear morphology (Hoechst 33342 staining) (IMR-32 cells; IMR-32, 0.1 μM, 24 hours, FIG. 2): induced nuclear aggregation and fragmentation
apoptosis-inducing effect ([9]; IMR-32, 10 μM): significant apoptosis-inducing effect
ability to induce apoptosis ([9]; IMR-32, 1×10^−5 M to 1×10^−7 M, FIG. 3): induced apoptosis; also recorded: concentration-dependent ability to induce apoptosis
antitumor activity relative to cisplatin (CDDP) (tumor cells): 50 to 100 times

IC50 ([1]; IMR-32, MTT, 48 hours, read-out: IC50): 28200 nM
IC50 ([2]; MTT, 48 hours, read-out: IC50): 12100 nM
IC50 ([3]; NB-39, MTT, 48 hours, read-out: IC50): 2040 nM
IC50 ([4]; LA-N-1, MTT, 48 hours, read-out: IC50): 1630 nM
IC50 ([5]; HepG-2, Table 1, read-out: IC50): 10000 nM
SMILES: [NH2][Pt]([NH2])([Cl])[Cl] [CDDP, cisplatin, reference compound]
IC50 ([6]; NHDF normal cells, MTT, 48 hours, read-out: IC50): > 100000 nM
IC50 ([7]; HUVEC normal cells, MTT, 48 hours, read-out: IC50): 69800 nM
IC50 [8]: 10000 nM
